What all share (format): cell-based
The test system of test [1] is clinical isolate P. aeruginosa PA 8. The test is described as follows: broth microdilution MIC assay, P. aeruginosa PA 8. Conditions: Pseudomonas aeruginosa; Table 3; P. aeruginosa PA8. On the procedure:
(§1) To determine the ability of test compounds to potentiate the inhibition of the growth of bacterial strains, classic cell-based broth microdilution MIC assays were employed. MIC assays are performed according to CLSI methods except where otherwise noted (CLSI, 2011 and CLSI, 2009). The reference strains S. aureus ATCC 29213 (methicillin sensitive), S. aureus ATCC 33591 (methicillin-resistant), E. coli ATCC 25922 (wild-type/QC strain), P. aeruginosa ATCC 27853 (wild-type/QC strain), and the clinical isolate P. aeruginosa PA 8 were used to determine the ability of the exemplary carbapenem compounds to inhibit bacterial growth. An expanded panel of methicillin resistance S. aureus (MRSA) and Pseudomonas was also used to determine the ability of exemplary carbapenem compounds to inhibit bacterial growth across a broader representation of those species. To determine activity in MRSA and in addition to S. aureus ATCC 33591, S. aureus USA 300, USA 400 and USA 600, some of the most common clones found to cause human infection, were also used. To further gauge the impact on the carbapenem compounds due to various resistance mechanisms in Pseudomonas, the following strains were included: P. aeruginosa 35151 (hyper-permeable strain), P. aeruginosa AmexAB-OprM (an efflux pump knockout), and P. aeruginosa PA 3 (a clinical isolate of reduced carbapenem susceptibility). Briefly, cryo-preserved bacterial cultures of clinical strains are streaked for isolation on appropriate agar medium, in this case Mueller Hinton II agar. Following incubation to allow formation of colonies, these plates are sealed with parafilm and stored refrigerated for up to two weeks. For preparation of assay inocula and to ensure low variability, at least 5 colonies are picked from the agar plates with an inoculating loop and aseptically transferred to a culture tube containing 3 mL of Mueller-Hinton Broth (supplemented with divalent cations to required levels based on Manufacturers' specification). The broth culture is grown for 3-5 hours at 37° C. with shaking at 200 rpm. Meanwhile, 2-fold serial dilutions of test compounds are conducted in a 96 well plate with a final volume of 75 μL per well at 2-fold the final desired concentration. After the dilution plates are set up the growing cultures are then diluted in a cuvette containing MH II broth and the optical density is measured at 600 nm. Inocula are diluted such that 75 μL of this culture in Mueller-Hinton Broth results in a starting bacterial concentration of 5×10^5 CFU/mL when added to the dilution plates. The plates are incubated 16-20 hours at 37° C. The MIC is read visually as the lowest concentration well with no bacterial growth.
(§2) Representative results are shown in Tables 3, 4, and 5 where A represents an MIC>32 μg/mL, B represents an MIC between 8 and 32 μg/mL inclusive, C represents an MIC between 1 and 4 μg/mL inclusive, and D represents an MIC of <1 μg/mL. NT=Not Tested.
In general terms: Dilution methods test growth across graded concentrations, often in twofold steps.

For test [2], the system named is P. aeruginosa ATCC 27853 (wild-type/QC strain). The test is described as follows: broth microdilution MIC assay, P. aeruginosa ATCC 27853. Conditions: Pseudomonas aeruginosa, ATCC27853; Table 3; P. aeruginosa 27853; read-out: P. aeruginosa 27853 MIC. The protocol:
as §1, §2

Test [3] relates to S. aureus ATCC 33591 (methicillin-resistant). The test is described as follows: broth microdilution MIC assay, S. aureus ATCC 33591. Conditions: Staphylococcus aureus, ATCC 33591 / MRSA; Table 3; S. aureus 33591 (MRSA); read-out: S. aureus 33591 (MRSA) MIC. On the procedure: as §1, §2
In test [4] the test system is E. coli ATCC 25922 (wild-type/QC strain). The test is described as follows: broth microdilution MIC assay, E. coli ATCC 25922. To be noted: Escherichia coli, ATCC25922; Table 3; E. coli 25922; read-out: E. coli 25922 MIC. On the procedure:
as §1, §2

The record followed here is patent US12084445B2, “Broad-spectrum carbapenems” (VenatoRx Pharmaceuticals, Inc., priority 2018, dated 2024).

Structures are written as SMILES.

In the case of `C[C@@H](O)[C@H]1C(=O)N2C(C(=O)O)=C(S[C@@H]3CCN(C4CCC(NCCCB(O)O)CC4)C3)[C@H](C)[C@H]12` (stereo partly drawn) [Example 3, (4R,5S,6S)-3-(((R)-1-(4-((3-boronopropyl)amino)cyclohexyl)pyrrolidin-3-yl)thio)-6-((R)-1-hydroxyethyl)-4-methyl-7-oxo-1-azabicyclo[3.2.0]hept-2-ene-2-carboxylic acid], the MIC in test [1] is 8 to 32 µg/mL; in test [2], 8 to 32 µg/mL; in test [3] it was 8 to 32 µg/mL; in test [4], under 1 µg/mL.

On to `C[C@@H](O)[C@H]1C(=O)N2C(C(=O)O)=C(S[C@@H]3CCN(C[C@H]4CC[C@H](CN)CC4)C3)[C@H](C)[C@H]12` [Example 17, (4R,5S,6S)-3-(((R)-1-(((1r,4R)-4-(aminomethyl)cyclohexyl)methyl)pyrrolidin-3-yl)thio)-6-((R)-1-hydroxyethyl)-4-methyl-7-oxo-1-azabicyclo[3.2.0]hept-2-ene-2-carboxylic acid], for which the MIC is 1 to 4 µg/mL in test [1], 1 to 4 µg/mL in test [2], 8 to 32 µg/mL in test [3] and under 1 µg/mL in test [4].

As for `CNC[C@H]1CC[C@H](CN2CC[C@@H](SC3=C(C(=O)O)N4C(=O)[C@H]([C@@H](C)O)[C@H]4[C@H]3C)C2)CC1` [Example 18, (4R,5S,6S)-6-((R)-1-hydroxyethyl)-4-methyl-3-(((R)-1-(((1r,4R)-4-((methylamino)methyl)cyclohexyl)methyl)pyrrolidin-3-yl)thio)-7-oxo-1-azabicyclo[3.2.0]hept-2-ene-2-carboxylic acid], the MIC was 1 to 4 µg/mL in test [1], 1 to 4 µg/mL in test [2], 8 to 32 µg/mL in test [3] and under 1 µg/mL in test [4].

`C[C@@H](O)[C@H]1C(=O)N2C(C(=O)O)=C(S[C@@H]3CCN(CCN4CCNCC4)C3)[C@H](C)[C@H]12` [Example 20, (4R,5S,6S)-6-((R)-1-hydroxyethyl)-4-methyl-7-oxo-3-(((R)-1-(2-(piperazin-1-yl)ethyl)pyrrolidin-3-yl)thio)-1-azabicyclo[3.2.0]hept-2-ene-2-carboxylic acid]: the MIC in test [1] is 1 to 4 µg/mL; in test [2], 1 to 4 µg/mL; in test [3], 8 to 32 µg/mL; in test [4], under 1 µg/mL.

For `CN[C@H]1CC[C@H](CN2CC[C@@H](SC3=C(C(=O)O)N4C(=O)[C@H]([C@@H](C)O)[C@H]4[C@H]3C)C2)CC1` [Example 21, (4R,5S,6S)-6-((R)-1-hydroxyethyl)-4-methyl-3-(((R)-1-(((1r,4R)-4-(methylamino)cyclohexyl)methyl)pyrrolidin-3-yl)thio)-7-oxo-1-azabicyclo[3.2.0]hept-2-ene-2-carboxylic acid], the MIC in test [1] was 1 to 4 µg/mL; in test [2], 1 to 4 µg/mL; in test [3], 8 to 32 µg/mL; in test [4], under 1 µg/mL.

`C[C@@H](O)[C@H]1C(=O)N2C(C(=O)O)=C(S[C@@H]3CCN([C@H]4CC[C@@H](N)CC4)C3)[C@H](C)[C@H]12` [Example 23, (4R,5S,6S)-3-(((R)-1-((1r,4R)-4-aminocyclohexyl)pyrrolidin-3-yl)thio)-6-((R)-1-hydroxyethyl)-4-methyl-7-oxo-1-azabicyclo[3.2.0]hept-2-ene-2-carboxylic acid]: the MIC is 1 to 4 µg/mL in test [1], 1 to 4 µg/mL in test [2], 8 to 32 µg/mL in test [3] and under 1 µg/mL in test [4].

With `CC(C1CCNCC1)N1CC[C@@H](SC2=C(C(=O)O)N3C(=O)[C@H]([C@@H](C)O)[C@H]3[C@H]2C)C1` (stereo partly drawn) [Example 25, (4R,5S,6S)-6-((R)-1-hydroxyethyl)-4-methyl-7-oxo-3-(((3R)-1-(1-(piperidin-4-yl)ethyl)pyrrolidin-3-yl)thio)-1-azabicyclo[3.2.0]hept-2-ene-2-carboxylic acid], the MIC in test [1] was 1 to 4 µg/mL; in test [2], 8 to 32 µg/mL; in test [3] it was 8 to 32 µg/mL; in test [4] it was under 1 µg/mL.

With `C[C@@H](O)[C@H]1C(=O)N2C(C(=O)O)=C(S[C@@H]3CCN(CC4CCN(CCN)CC4)C3)[C@H](C)[C@H]12` [Example 26, (4R,5S,6S)-3-(((R)-1-((1-(2-aminoethyl)piperidin-4-yl)methyl)pyrrolidin-3-yl)thio)-6-((R)-1-hydroxyethyl)-4-methyl-7-oxo-1-azabicyclo[3.2.0]hept-2-ene-2-carboxylic acid], the MIC was 1 to 4 µg/mL in test [1], 1 to 4 µg/mL in test [2], over 32 µg/mL in test [3] and under 1 µg/mL in test [4].

For the compound `C[C@@H](O)[C@H]1C(=O)N2C(C(=O)O)=C(S[C@@H]3CCN(C4CCN(CCN)CC4)C3)[C@H](C)[C@H]12` [Example 27, (4R,5S,6S)-3-(((R)-1-(1-(2-aminoethyl)piperidin-4-yl)pyrrolidin-3-yl)thio)-6-((R)-1-hydroxyethyl)-4-methyl-7-oxo-1-azabicyclo[3.2.0]hept-2-ene-2-carboxylic acid], the MIC in test [1] was 1 to 4 µg/mL; in test [2] it was 1 to 4 µg/mL; in test [3], 8 to 32 µg/mL; in test [4], under 1 µg/mL.

On to `CC1CC(CN2CC[C@@H](SC3=C(C(=O)O)N4C(=O)[C@H]([C@@H](C)O)[C@H]4[C@H]3C)C2)CCN1` (stereo partly drawn) [Example 28, (4R,5S,6S)-6-((R)-1-hydroxyethyl)-4-methyl-3-(((3R)-1-((2-methylpiperidin-4-yl)methyl)pyrrolidin-3-yl)thio)-7-oxo-1-azabicyclo[3.2.0]hept-2-ene-2-carboxylic acid], for which the MIC in test [1] was 1 to 4 µg/mL; in test [2] it was 8 to 32 µg/mL; in test [3], 8 to 32 µg/mL; in test [4], under 1 µg/mL.

Turning to `CNCc1ccc(CN2CC[C@@H](SC3=C(C(=O)O)N4C(=O)[C@H]([C@@H](C)O)[C@H]4[C@H]3C)C2)cn1` [Example 29, (4R,5S,6S)-6-((R)-1-hydroxyethyl)-4-methyl-3-(((R)-1-((6-((methylamino)methyl)pyridin-3-yl)methyl)pyrrolidin-3-yl)thio)-7-oxo-1-azabicyclo[3.2.0]hept-2-ene-2-carboxylic acid], the MIC in test [1] was 1 to 4 µg/mL; in test [2], 8 to 32 µg/mL; in test [3], 8 to 32 µg/mL; in test [4], under 1 µg/mL.

On to `C[C@@H](O)[C@H]1C(=O)N2C(C(=O)O)=C(S[C@@H]3CCN(CC4CCNC(CN)C4)C3)[C@H](C)[C@H]12` (stereo partly drawn) [Example 30, (4R,5S,6S)-3-(((3R)-1-((2-(aminomethyl)piperidin-4-yl)methyl)pyrrolidin-3-yl)thio)-6-((R)-1-hydroxyethyl)-4-methyl-7-oxo-1-azabicyclo[3.2.0]hept-2-ene-2-carboxylic acid], for which the MIC in test [1] was 1 to 4 µg/mL; in test [2], 8 to 32 µg/mL; in test [3] it was 8 to 32 µg/mL; in test [4], under 1 µg/mL.

For `C[C@@H](O)[C@H]1C(=O)N2C(C(=O)O)=C(S[C@@H]3CCN(Cc4ccc(CN)c(CN)c4)C3)[C@H](C)[C@H]12` [Example 31, (4R,5S,6S)-3-(((R)-1-(3,4-bis(aminomethyl)benzyl)pyrrolidin-3-yl)thio)-6-((R)-1-hydroxyethyl)-4-methyl-7-oxo-1-azabicyclo[3.2.0]hept-2-ene-2-carboxylic acid], the MIC in test [1] is 8 to 32 µg/mL; in test [2], 8 to 32 µg/mL; in test [3], 1 to 4 µg/mL; in test [4] it was under 1 µg/mL.

By MIC is commonly meant the lowest concentration found to suppress growth.
